Test results published in patent US12357691B2, “Antibodies specifically binding to CD147 and uses thereof” (Alphelix Biotech Co., Ltd., priority 2022, dated 2025).

Tests used:
[1] = tested on: patient-derived NSCLC organoid; assay: Organoid drug response assay (CellTiter-Glo); format: cell-based, human; details: three days of drug incubation; three patient models
Description: All procedures performed involving human participants were approved by the Ethics Committee of Shanghai Jiao Tong University School of Medicine and were in accordance with the ethical standards of Helsinki Declaration (as revised in 2013). All the donors signed an informed consent form. Freshly excised tumor samples from patients were kept in MACS tissue storage solution (Miltenyi) at 4° C. upon harvest. Tumor tissues were minced into small pieces on ice, then incubated with 0.001% DNase (Sigma-Aldrich, MO, USA), 1 mg/mL collagenase/dispase (Roche, IN, USA), 200 U/mL penicillin, […], and […] amphotericin B (2% antibiotics, Sigma) in DMEM/F12 medium (Thermofisher) at 37° C. for three hours with gentle agitation and intermittent resuspension. Thereafter, the digested tissue suspension was repeatedly triturated via pipetting and passed through a 70 μm filter. The strained suspension was centrifuged at 112×g for three minutes, and red blood cells were lysed using lysis buffer (00443357, Thermofisher) for five minutes. […]
The organoids cultured over two weeks were harvested and dissociated using 1× TrypLe (Thermofisher). […] The plates were agitated for 30 minutes at room temperature (10° C.-30° C.) prior to measuring luminescence.

[2] = tested on: peripheral blood mononuclear cells (PBMC); assay: Toxicity on patients' PBMC; format: cell-based, human
Description: Then, treating organoids in presence of 5 μg/mL pembrolizumab, in combination with either of these agents (AZD3965 at 0.1 μM, GSK2837808A at 1 μM, and WZHAb10 at 0.0006 μM) and each PBMC (FIGS. 18, 19 and 20). IgG was used as control in FIG. 18, IgG and/or vehicle were used as control in FIGS. 19-20.

WT MCT4/BSG-2 (mouse) = WT MCT4/BSG-2 (mouse) (UniProt P57787)
WT MCT1/BSG-2 (mouse) = WT MCT1/BSG-2 (mouse) (UniProt P53986)

Row | Molecule | anti-proliferative effect of single agent on organoids [1] | effect on T cell growth (PBMC) ([2]; at 0.1 μM) | effect on T cell growth (PBMC) ([2]; at 1 μM) | transport activity (H+ influx, H+-L-lactate symport in proteoliposomes) (WT MCT4/BSG-2 (mouse)) [%] | transport activity (H+ influx, H+-pyruvate symport in proteoliposomes) (WT MCT1/BSG-2 (mouse)) [%]
1 | Cc1[nH]nc(C(F)(F)F)c1Cc1sc2c(c1C(=O)N1C[C@](C)(O)CO1)c(=O)n(C)c(=O)n2C(C)C [AZD3965] | moderate anti-proliferative effect | little effects on T cell growth |  |  | 
2 | COc1ncc(-c2ccc3c(Nc4cc(Oc5cc(F)cc(F)c5)cc(C(=O)O)c4)c(S(=O)(=O)NC4CC4)cnc3c2)c(OC)n1 [GSK2837808A] | moderate anti-proliferative effect |  | little effects on T cell growth |  | 
3 | WZHAb10 (antibody, V domains shown) VH: QVQLVQSGAEVKKPGASVKVSCKASGYTFTNYWIHWVRQAPGQGLEWMGMIHPNSGSINYNEKFKTRVTMTRDTSTSTVYMELSSLRSEDTAVYYCARVGSGSLDYWGQGTLVTVSS VL: EIVLTQSPATLSLSPGERATLSCRASQSISDYLHWYQQKPGQAPRLLIKYVSQSISGIPARFSGSGSGTYFTLTISSLEPEDVAVYYCQNGEEAPYTFGQGTKLEIKR |  |  |  | 50 | 75
